Laboratory results taken from patent US20090042865A1, “DNA-PK INHIBITORS” (priority 2007, published 2009).
Read-outs that look alike come from different tables or passages of the source.

What was measured:
DNA-PK = DNA-PK (Homo sapiens, UniProt P78527); experiment: DNA-PK inhibition assay (ELISA, phosphorylation of GST-p53N66); format: biochemical, Mammalian (isolated from HeLa cell nuclear extract)
Procedure: In order to assess the inhibitory action of the compounds against DNA-PK in vitro, the following assay was used to determine IC50 values.
To the assay mix, varying concentrations of inhibitor (in DMSO at a final concentration of 1%) were added. After 10 minutes of incubation, ATP was added to give a final concentration of 50 μM along with a 30mer double stranded DNA oligonucleotide (final concentration of 0.5 ng/ml) to initiate the reaction. After 1 hour with shaking, 150 μl of phosphate buffered saline (PBS) was added to the reaction and 5 μl then transferred to a 96 well opaque white plate containing 45 μl of PBS per well where the GSTp53N66 substrate was allowed to bind to the wells for 1 hour. To detect the phosphorylation event on the serine 15 residue of p53 elicited by DNA-PK a p53 phosphoserine-15 antibody (Cell Signaling Technology) was used in a basic ELISA procedure. An anti-rabbit HRP conjugated secondary antibody (Pierce) was then employed in the ELISA before the addition of chemiluminescence reagent (NEN Renaissance) to detect the signal as measured by chemiluminescent counting via a TopCount NXT (Packard).
The enzyme activity for each compound is then calculated using the following equation: […]
These are determined over a range of different concentrations, normally from 10 μM down to 0.001 μM. Such IC50 values are used as comparative values to identify increased compound potencies.

cells = settings: cited from earlier work
PI 3-kinase = settings: stated to be the same as towards DNA-PK; cited from earlier work
HeLa cells = experiment: Survival Enhancement Ratio, clonogenic survival assay after 2 Gray irradiation; format: cell-based; settings: prior-art compound of WO 03/024949; concentration not given
Procedure: The Survival Enhancement Ratio (SER) is a ratio of the enhancement of cell kill elicited by the DNA-PK inhibitor after 2 Grays of irradiation compared to […]. DNA-PK inhibitors were used at a concentration of 25, 50, 100 and/or 500 nM. Radiation was delivered by a Faxitron 43855D machine at a dose rate of 1 Gy pre minute The SER at 2 Gray irradiation was calculated from the formula:
The degree of cell killing was monitored by a standard clonogenic survival assay. Briefly, tissue culture treated 6-well plates were seeded with HeLa cells at an appropriate concentration to give 100-200 colonies per well and returned to the incubator in order to allow the cells to attach. Four hours later, compound or vehicle control was added to the cells. The cells were then incubated for 1 hour in the presence of inhibitor prior to irradiation at 2 Gray using a Faxitron 43855D cabinet X-ray machine. The cells were then incubated for a further 16 hours before the media was replaced with fresh media in the absence of DNA-PK inhibitor. After 8 days, colonies formed were fixed and stained with Giemsa (Sigma, Poole, UK) and scored using an automated colony counter (Oxford Optronics Ltd, Oxford, UK). The data was calculated as described above.

[1] = IC50 (mean IC50 of the compounds), mean, DNA-PK from HeLa nuclear extract, 50 μM ATP
[2] = mean, DNA-PK from HeLa nuclear extract, 50 μM ATP, read-out: IC50 (mean IC50 of the compounds)

Structure (SMILES)	IC50 (DNA-PK; [1])	IC50 (DNA-PK; mean IC50, read-out: IC50)	IC50 (DNA-PK; [2])	further results
O=c1cc(N2CCOCC2)oc2c(-c3ccc(N4CCNCC4)c4c3sc3ccccc34)cccc12 [Compound 1a, 2-Morpholin-4-yl-8-(1-piperazin-1-yl-dibenzothiophen-4-yl)-chromen-4-one]	11 nM			IC50 (DNA-PK; IC50, mean IC50): < 50 nM
CCN1CCN(c2ccc(-c3cccc4c(=O)cc(N5CCOCC5)oc34)c3sc4ccccc4c23)CC1 [Compound 1b]	8 nM			IC50 (DNA-PK; IC50, mean IC50): < 50 nM
CC(C)(C)OC(=O)N1CCN(c2ccc(-c3cccc4c(=O)cc(N5CCOCC5)oc34)c3sc4ccccc4c23)CC1 [Compound 1c, 4-[4-(2-Morpholin-4-yl-4-oxo-4H-chromen-8-yl)-dibenzothiophen-1-yl]-piperazine-1-carboxylic acid tert-butyl ester]	447 nM			
O=c1cc(N2CCOCC2)oc2c(-c3ccc(N4CCN(CCOCCO)CC4)c4c3sc3ccccc34)cccc12 [Compound 1d]	8 nM			IC50 (DNA-PK; IC50, mean IC50): < 50 nM
CC(C)N1CCN(c2ccc(-c3cccc4c(=O)cc(N5CCOCC5)oc34)c3sc4ccccc4c23)CC1 [Compound 1e]	17 nM			IC50 (DNA-PK; IC50, mean IC50): < 50 nM
O=c1cc(N2CCOCC2)oc2c(-c3ccc(N4CCC(N5CCOCC5)CC4)c4c3sc3ccccc34)cccc12 [Compound 1f]	24 nM			IC50 (DNA-PK; IC50, mean IC50): < 50 nM
CC1CN(c2ccc(-c3cccc4c(=O)cc(N5CCOCC5)oc34)c3sc4ccccc4c23)CC(C)N1 (stereo not shown) [Compound 1g]	12 nM			IC50 (DNA-PK; IC50, mean IC50): < 50 nM
CC(C)(C)OC(=O)N1CCCN(c2ccc(-c3cccc4c(=O)cc(N5CCOCC5)oc34)c3sc4ccccc4c23)CC1 [Compound 1h]	86 nM			
CC(=O)N1CCN(c2ccc(-c3cccc4c(=O)cc(N5CCOCC5)oc34)c3sc4ccccc4c23)CC1 [Compound 1j]	31 nM			
O=C(C1CCCO1)N1CCN(c2ccc(-c3cccc4c(=O)cc(N5CCOCC5)oc34)c3sc4ccccc4c23)CC1 (stereo not shown) [Compound 1k]	80 nM			
O=c1cc(N2CCOCC2)oc2c(-c3ccc(N4CCCC(F)C4)c4c3sc3ccccc34)cccc12 (stereo not shown) [Compound 1m]	136 nM			
CN(C)C1CCN(c2ccc(-c3cccc4c(=O)cc(N5CCOCC5)oc34)c3sc4ccccc4c23)CC1 [Compound 1n]	13 nM			IC50 (DNA-PK; IC50, mean IC50): < 50 nM
CCOC1CCN(c2ccc(-c3cccc4c(=O)cc(N5CCOCC5)oc34)c3sc4ccccc4c23)CC1 [Compound 1o]	400 nM			
COC1CCN(c2ccc(-c3cccc4c(=O)cc(N5CCOCC5)oc34)c3sc4ccccc4c23)CC1 [Compound 1p]	173 nM			
CC(=O)C(C)N1CCN(c2ccc(-c3cccc4c(=O)cc(N5CCOCC5)oc34)c3sc4ccccc4c23)CC1 (stereo not shown) [Compound 2a]		< 50 nM	11 nM	
COCCOCCN1CCN(c2ccc(-c3cccc4c(=O)cc(N5CCOCC5)oc34)c3sc4ccccc4c23)CC1 [Compound 2b]		< 50 nM	4 nM	
COCCN1CCN(c2ccc(-c3cccc4c(=O)cc(N5CCOCC5)oc34)c3sc4ccccc4c23)CC1 [Compound 2c]		< 50 nM	6 nM	
CCOCCN1CCN(c2ccc(-c3cccc4c(=O)cc(N5CCOCC5)oc34)c3sc4ccccc4c23)CC1 [Compound 2e]		< 50 nM	7 nM	
CCCN1CCN(c2ccc(-c3cccc4c(=O)cc(N5CCOCC5)oc34)c3sc4ccccc4c23)CC1 [Compound 2f]		< 50 nM	11 nM	
O=c1cc(N2CCOCC2)oc2c(-c3ccc(N4CCN(CC5CC5)CC4)c4c3sc3ccccc34)cccc12 [Compound 2g]		< 50 nM	17 nM	
O=c1cc(N2CCOCC2)oc2c(-c3ccc(N4CCN(CC5CCCO5)CC4)c4c3sc3ccccc34)cccc12 (stereo not shown) [Compound 2i]			21 nM	
CCCOCCN1CCN(c2ccc(-c3cccc4c(=O)cc(N5CCOCC5)oc34)c3sc4ccccc4c23)CC1 [Compound 2j]			9 nM	
O=c1cc(N2CCOCC2)oc2c(-c3ccc(N4CCN(C5CCCCC5O)CC4)c4c3sc3ccccc34)cccc12 (stereo not shown) [Compound 2k]			43 nM	
NCCN1CCN(c2ccc(-c3cccc4c(=O)cc(N5CCOCC5)oc34)c3sc4ccccc4c23)CC1 [Compound 2l]			7 nM	
O=c1cc(N2CCOCC2)oc2c(-c3ccc(N4CCN(CCO)CC4)c4c3sc3ccccc34)cccc12 [Compound 2m]		< 50 nM	3 nM	
CC(C)NC(=O)CN1CCN(c2ccc(-c3cccc4c(=O)cc(N5CCOCC5)oc34)c3sc4ccccc4c23)CC1 [Compound 2o]		< 50 nM	7 nM	
CS(=O)(=O)N1CCN(c2ccc(-c3cccc4c(=O)cc(N5CCOCC5)oc34)c3sc4ccccc4c23)CC1 [Compound 3a]		< 50 nM	24 nM	
CCS(=O)(=O)N1CCN(c2ccc(-c3cccc4c(=O)cc(N5CCOCC5)oc34)c3sc4ccccc4c23)CC1 [Compound 3b]		< 50 nM	21 nM	
O=c1cc(N2CCOCC2)oc2c(-c3ccccc3)cccc12 [LY294002]				sensitisation of cells to the effects of IR (cells): weakly sensitise; IC50 (PI 3-kinase): ~1000 nM
O=c1cc(N2CCOCC2)oc2c(-c3cccc4c3sc3ccccc34)cccc12 [reference compound]				IC50 (DNA-PK; IC50, prior-art compound of WO 03/024949, methods as below in the patent): 10 to 12 nM; SER (HeLa cells): 1.3
